Structures can show the parent of a compound that is named as a salt.
Each molecule was assayed on IL-17F mRNA expression (assay: Ex-vivo human skin model, IL-17F mRNA expression). Conditions: four different donors, compound 10 μM.
Format: cell-based
Description: (§1) Fresh ex vivo human skin from healthy bariatric patients, that underwent abdominoplasty skin removal, was de-fatted and dermatomed at 750 μm. Dermatomed skin was incubated twice for 5-10 minutes at room temperature in PBS containing a antibiotic/antimycotic solution: Fungizone (Invitrogen #15290018), PSG (Fisher #BW17718R) and Gentamicin (Invitrogen #15750060). Skin was treated aseptically from this point on. Individual skin samples were obtained by 10 mm punch biopsy and placed in a 0.4 μm PCF membrane transwell (Millicell #PIHP01250) containing 30 μl of a 64% bovine collagen solution. After a 30 minute incubation at 37° C., which allows the collagen solution time to set, skin samples on transwells were transferred to 6-well plates (1 sample per well) and the lower chamber filled with 1 ml complete media (Cornification Media)+hydrocortisone (final concentration of 0.4 μg/ml) with or without test compounds at 10 μM (day −3) and allowed to rest overnight (16-18 h) at 37° C. Next, media was aspirated from the lower chamber, replaced with 1 ml complete media without hydrocortisone and incubated at 37° C. for 1 h. This constituted a ‘wash’ step. Following the hydrocortisone washout, media was again aspirated from the lower chamber and replaced with 1.0 ml complete media without hydrocortisone with or without GSK compounds at 10 μM (day −2). Cultures were incubated at 37° C. in a humidified chamber and media was refreshed one more day (day-1). The following day (day-0), cultures were stimulated for 24 h with a freshly made Th17 cytokine cocktail (CD3, 1 μg/ml, CD28, 2 μg/ml, IL-1b, 10 ng/ml, IL-6, 5 ng/ml, TGFb, 1 ng/ml, IL-21, 10 ng/ml, anti-IL-4, 1 μg/ml and anti-INFg, 1 μg/ml) with or without test compounds at 10 μM. Upon harvest (day +1), skin samples were minced with a razor blade and transferred to 1.5 ml RNAse-free tubes with 1 ml RNAlater solution until later analysis by RT-PCR (stored at −80 C).
(§2) Total RNA was isolated from about 30-40 mg of tissue using Qiagen's (Cat #74106) Mini RNA Isolation kit. Briefly, tissue was homogenized in the Precellys-24 machine using 300 μL of RLT buffer supplemented with 1% 2-Beta-Mercapto-Ethanol at 6300 rpm for 30 seconds for 6 cycles with a 2-minute ice break. 600 μL of water containing Proteinase K was added to the homogenate and digested at 55 C for 15 minutes. Digested tissue was spun down for 3 minutes at 10,000×g and the supernantant was used for RNA isolation using Qiagen's RNeasy mini columns according to manufacturer's protocol. 100 ng of RNA was used as template in a 20 μL PCR volume using Applied Biosciences RNA-to-CT 1 Step kit (AB Catalog #4392938) as well as the specific TaqMan probe for each gene to be quantified. Life Technologies FAM labeled Probes Catalog Numbers are as follows: ACTb=Hs01060665_g1, IL-17A=Hs00174383_m1, IL-17F=Hs00369400_m1, IL-22=Hs01574154_m1. All probes used (except for ACTb) expand an Exon. Applied Biosciences' Master Mix has a ROX dye internal control. OneStepPlus PCR machine was used for both the RT step and the 40 amplification cycles. RNA levels of gene of interest's relative expression were calculated using the Delta Delta CT formula.
(§3) First delta: Normalized to ACTb gene expression
(§4) Second delta: Normalized to sample 13 (Day 0+DMSO) for the gene of interest.
`CCc1ccc(N(CC(C)C)S(=O)(=O)c2ccc(OCC3CCOCC3)c(CO)c2)cc1` [Example E124, N-(4-ethylphenyl)-3-(hydroxymethyl)-N-isobutyl-4-((tetrahydro-2H-pyran-4-yl)methoxy)benzenesulfonamide] was tested, and the “gene transcription of il17f (result in words)” value was “inhibited”.

Each molecule was assayed against T1, Human RORγ Ligand Binding Domain (RORγ-LBD) (Homo sapiens, UniProt P51449) (assay: Dual Fluorescence Energy Transfer (FRET) assay: co-activator SRC1(2) peptide interaction with RORγ-LBD). Conditions: RORγ-LBD / SRC1(2) peptide, read-out: mean pIC50 (converted).
T1 construct: His6 with thrombin site) (N); made in house; host or cells: E. coli BL21(DE3), modified pET21a vector
T1 sequence (P51449 263-518): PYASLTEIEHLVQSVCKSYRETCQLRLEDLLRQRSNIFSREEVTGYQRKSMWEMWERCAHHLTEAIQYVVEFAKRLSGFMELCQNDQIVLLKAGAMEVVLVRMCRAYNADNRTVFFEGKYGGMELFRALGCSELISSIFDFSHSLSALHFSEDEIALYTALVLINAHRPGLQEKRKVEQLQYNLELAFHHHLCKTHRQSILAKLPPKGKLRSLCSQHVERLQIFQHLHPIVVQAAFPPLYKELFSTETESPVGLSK
Format: biochemical
Excerpt: Dual Fluorescence Energy Transfer (FRET) Assay
This assay is based on the knowledge that nuclear receptors interact with cofactors (transcription factors) in a ligand dependent manner. RORγ is a typical nuclear receptor in that it has an AF2 domain in the ligand binding domain (LBD) which interacts with co-activators.
This assay measures ligand-mediated interaction of the co-activator peptide with the purified bacterial-expressed RORγ ligand binding domain (RORγ-LBD) to indirectly assess ligand binding. RORγ has a basal level of interaction with the co-activator SRC1(2) in the absence of ligand, thus, it is possible to find ligands that inhibit or enhance the RORγ/SRC1(2) interaction.
Human RORγ Ligand Binding Domain (RORγ-LBD) was expressed in E. coli strain BL21(DE3) as an amino-terminal polyhistidine tagged fusion protein. DNA encoding this recombinant protein was sub-cloned into a modified pET21a expression vector (Novagen).
Approximately 50 g E. coli cell pellet was resuspended in 300 mL of lysis buffer (30 mM imidazole pH 7.0 and 150 mM NaCl). Cells were lysed by sonication and cell debris was removed by centrifugation for 30 minutes at 20,000 g at 4° C. […] The clarified lysate was loaded onto a column (XK-26) packed with ProBond Nickel Chelating resin (InVitrogen), pre-equilibrated with 30 mM imidazole pH 7.0 and 150 mM NaCl. After washing to baseline absorbance with the equilibration buffer, the column was developed with a gradient from 30 to 500 mM imidazole pH 7.0. Column fractions containing the RORγ-LBD protein were pooled and concentrated to a volume of 5 mLs. The concentrated protein was loaded onto a Superdex 200 column pre-equilibrated with 20 mM Tris-Cl pH 7.2 and 200 mM NaCl. The fractions containing the desired RORγ-LBD protein were pooled together.
Purified RORγ-LBD was buffer exchanged by exhaustive dialysis [3 changes of at least 20 volumes (>8000×)] against PBS [100 mM NaPhosphate, pH 8 and 150 mM NaCl]. […] The modified RORγ-LBD was dialyzed against 2 buffer changes—TBS pH 8.0 containing 5 mM DTT, 2 mM EDTA and 2% sucrose—each at least 20 times of the volume. The modified protein was distributed into aliquots, frozen on dry ice and stored at −80° C. The biotinylated RORγ-LBD was subjected to mass spectrometric analysis to reveal the extent of modification by the biotinylation reagent.
Biotinylated SRC1(2) solution was prepared by adding an appropriate amount of biotinylated SRC1(2) from the 100 uM stock solution to a buffer containing 10 mM of freshly added DTT from solid to give a final concentration of 40 nM. An appropriate amount of Europium labeled Streptavidin was then added to the biotinylated SRC1(2) solution in a tube to give a final concentration of 10 nM. The tube was inverted gently and incubated for 15 minutes at room temperature. Twenty-fold excess biotin from the 10 mM stock solution was added and the tube was inverted gently and incubated for 10 minutes at room temperature.
Biotinylated RORγ-LBD solution was prepared by adding an appropriate amount of biotinylated RORγ-LBD from the stock solution to a buffer containing 10 mM of freshly added DTT from solid to give a final concentration of 40 nM. An appropriate amount of APC labeled Streptavidin was then added to the biotinylated RORγ-LBD solution in a tube to give a final concentration of 20 nM. The tube was inverted gently and incubated for 15 minutes at room temperature. Twenty-fold excess biotin from the 10 mM stock solution was then added and the tube was inverted gently and incubated for 10 minutes at room temperature.
The reaction mixtures were incubated for 5 minutes. […] The plates were incubated for 1 hour and then read on ViewLux in Lance mode for EU/APC.
`Cc1ccc(N(CC(C)C)S(=O)(=O)c2ccc(OCC3CCOCC3)c(Cl)c2)c(C)c1` [Example E20] was tested, and the IC50 was ≤ 15.8 nM.

Each molecule was assayed on IL-17A mRNA expression (assay: Ex-vivo human skin model, IL-17A mRNA expression). Conditions: four different donors, compound 10 μM.
Format: cell-based
Description: as §1, §2, §3, §4
In the case of `CCc1ccc(N(CC(C)C)S(=O)(=O)c2ccc(OCC3CCOCC3)c(CO)c2)cc1` [Example E124, N-(4-ethylphenyl)-3-(hydroxymethyl)-N-isobutyl-4-((tetrahydro-2H-pyran-4-yl)methoxy)benzenesulfonamide], the “gene transcription of il17a (result in words)” value is reported as “inhibited”.

Each molecule was assayed on IL-17A secreted from antiCD3/CD28 stimulated Peripheral Blood Mononuclear cells (PBMC) (assay: Peripheral Blood Mononucleocyte Cell Assay (PBMC Assay - IL-17)). Conditions: Homo sapiens, 48 h, IL-17A release, read-out: mean pIC50 (converted).
Format: cell-based
Description: Peripheral Blood Mononucleocvte Cell Assay (PBMC Assay—IL-17) […]
This assay is designed to measure levels of IL-17A secreted from antiCD3/CD28 stimulated frozen Peripheral Blood Mononuclear cells (PBMC) isolated from human blood with the aim of identifying inhibitors of IL-17A release.
2. The compounds for screening are dispensed into a master plate at 10 mM top concentration which are serially diluted 1:3 across 11 points in DMSO, then 500 nL is transferred into a 384-well flat-bottomed Greiner plate to which 50 uL of cell suspension is added: for the single shot screening the highest concentration of compound is 10^−5M; for 11 point full curve dose response studies the highest concentration is 10^−4 M.
As a low control, DMSO (as supplied, for example, by VWR) (final concentration 1%) in column 6 (16 points).
As a high control, 5-(4-fluorophenyl)-2-ureidothiophene-3-carboxamide (obtainable from, for example, Sigma) at a final concentration of 10^−4 M in DMSO should be used in column 18 (16 points).
9. Make the cell suspension at the concentration 8×10^5 cells/mL to give a final number of 40,000 cells/well.
1. Add well mixed CD3/CD28 Dynabeads (as supplied, for example, by Dynal) to achieve ratio bead:cell=2:1 (ie. a dilution of 1 in 20). Mix thoroughly.
2. Dispense the suspension into the 384 Assay Plates using Multidrop (50 uL per well). If the volume of cell suspension is large, mix the suspension after dispensing into every other plate.
3. Cover the plates with the lids and place them to the humidified incubator (37° C., 5% CO2) for 48 hours.
1. Transfer 10 uL of supernatants from assay plates to the MSD plates using Cybiwell. Ensure that all wells are covered with the solution. Tap the plate gently, if some of the wells are not covered with the supernatant.
3. Add 10 uL of MSD IL-17 detecting antibody using multidrop (1 ug/mL in D-PBS without Ca^2+ and Mg^2+ (supplied, for example, by Gibco)).
4. Cover the plates with adhesive foil and incubated with shaking for 3 hours at room temperature
7. Add 35 uL of MSD Read Buffer T×2 using multidrop.
8. Read plates on MSD MA6000 reader using the 384 well plate protocol as per manufacturer's instructions.
`Cc1ccc(N(CC(C)C)S(=O)(=O)c2ccc(C(O)CN3CCOCC3)cc2)c(C)c1` (single isomer, unassigned) [Example E122, N-(2,4-dimethylphenyl)-4-(1-hydroxy-2-morpholinoethyl)-N-isobutylbenzenesulfonamide] was tested, and the IC50 was < 1000 nM.
In the case of `Cc1ccc(N(CC(C)C)S(=O)(=O)c2ccc(OCC3CCNCC3)cc2)c(C)c1` [Example E8, N-(2,4-dimethylphenyl)-N-isobutyl-4-(piperidin-4-ylmethoxy)benzenesulfonamide, Trifluoroacetic acid salt], the IC50 is reported as < 1000 nM.
In the case of `Cc1ccc(N(CC(C)C)S(=O)(=O)c2ccc(OCC3(C)COCC(=O)N3)cc2)c(C)c1` (centres unmarked) [Example E11], the IC50 is reported as < 1000 nM.
With `Cc1ccc(N(CC(C)C)S(=O)(=O)c2ccc(N3CCOCC3)cc2)c(C)c1` [Example E33] the IC50 was < 1000 nM.
For `Cc1ccc(N(CC(C)C)S(=O)(=O)c2ccc(OC[C@H]3NCCO[C@@H]3C)cc2)c(C)c1` [Example E36], the IC50 was < 1000 nM.
In the case of `Cc1ccc(N(CC(C)C)S(=O)(=O)c2ccc(OCC3CCC(C)CC3)cc2)c(C)c1` (centres unmarked) [Example E47], the IC50 is reported as > 100000 nM.
In the case of `Cc1ccc(N(CC(C)C)S(=O)(=O)c2ccc(C(O)CN3CCOCC3)c(Cl)c2)c(C)c1` (centres unmarked) [Example E84], the IC50 is reported as < 1000 nM.
With `Cc1ccc(N(CC(C)C)S(=O)(=O)c2ccc(C(O)CN3CCOCC3)c(F)c2)c(C)c1` (centres unmarked) [Example E87] the IC50 was < 1000 nM.
In the case of `Cc1ccc(N(CC(C)C)S(=O)(=O)c2ccc(C(O)CN3CCOCC3)cc2C)c(C)c1` (centres unmarked) [Example E88], the IC50 is reported as < 1000 nM.
In the case of `Cc1ccc(N(CC(C)C)S(=O)(=O)c2ccc(C(CO)N3CCOCC3)c(C)c2)c(C)c1` (centres unmarked) [Example E89, N-(2,4-dimethylphenyl)-4-(2-hydroxy-1-morpholinoethyl)-N-isobutyl-3-methylbenzenesulfonamide], the IC50 is reported as < 1000 nM.
With `Cc1ccc(N(CC(C)C)S(=O)(=O)c2ccc(C(O)CN3CCOCC3)c(C)c2)c(C)c1` (centres unmarked) [Example E90, N-(2,4-dimethylphenyl)-4-(1-hydroxy-2-morpholinoethyl)-N-isobutyl-3-methylbenzenesulfonamide] the IC50 was < 1000 nM.
With `CCc1ccc(N(CC(C)C)S(=O)(=O)c2ccc(C(O)CN3CCOCC3)cc2)cc1` (centres unmarked) [Example E113, N-(4-ethylphenyl)-4-(1-hydroxy-2-morpholinoethyl)-N-isobutylbenzenesulfonamide] the IC50 was < 1000 nM.
For `Cc1ccc(N(CC(C)C)S(=O)(=O)c2ccc(C(O)CN3CCOCC3)cc2)c(C)c1` (centres unmarked) [Example E120, N-(2,4-dimethylphenyl)-4-(1-hydroxy-2-morpholinoethyl-N-isobutylbenzenesulfonamide hydrochloride], the IC50 was < 1000 nM.

These molecules were tested on IL-22 mRNA expression (assay: Ex-vivo human skin model, IL-22 mRNA expression). Conditions: four different donors, compound 10 μM.
Format: cell-based
Description: as §1, §2, §3, §4
For `CCc1ccc(N(CC(C)C)S(=O)(=O)c2ccc(OCC3CCOCC3)c(CO)c2)cc1` [Example E124, N-(4-ethylphenyl)-3-(hydroxymethyl)-N-isobutyl-4-((tetrahydro-2H-pyran-4-yl)methoxy)benzenesulfonamide], the “gene transcription of il22 (result in words)” value was “inhibited”.

Reference: patent US9428452B2, “Compounds” (Glaxo Group Limited, priority 2012, dated 2016)
